Patent US20130165520A1, “Hybrid Molecule Having Mixed Retinoic Acid Receptor Agonism and Histone Deacetylase Inhibitory Properties” (priority 2010, published 2013)

Legend:
SN12C = test: cells; details: Homo sapiens, 48 h
SK-MEL-5 = SK-MEL-5 (Melanoma); 48 h
A498 [1] = details: A498 (Renal); 48 h
SNB-75 = SNB-75 (CNS); 48 h
HT29 = HT29 (Colon); 48 h
A498 [2] = test: cells; details: Homo sapiens, A498, 48 h
HCC-2998 = HCC-2998 (Colon); 48 h
SF-268 = SF-268 (CNS); 48 h
CCRF-CEM = test: cells; details: Homo sapiens, 48 h
U251 = U251 (CNS); 48 h
NCI-H322M = NCI-H322M (Non-Small cell lung cancer); 48 h
MDA-MB-231/ATCC = test: cells; details: Homo sapiens, MDA-MB-231, 48 h
PC-3 = PC-3 (Prostate); 48 h
MOLT-4 = test: cells; details: Homo sapiens, MOLT-4, 48 h
MDA-MB-435 = test: cells; details: Homo sapiens, MDA-MB-435, 48 h
RARα = target: T1, RARα (Homo sapiens, UniProt P10276); test: BRET assay of agonist-dependent coactivator recruitment in transfected HEK293 cells; type: cell-based
T1 sequence (P10276 1-462): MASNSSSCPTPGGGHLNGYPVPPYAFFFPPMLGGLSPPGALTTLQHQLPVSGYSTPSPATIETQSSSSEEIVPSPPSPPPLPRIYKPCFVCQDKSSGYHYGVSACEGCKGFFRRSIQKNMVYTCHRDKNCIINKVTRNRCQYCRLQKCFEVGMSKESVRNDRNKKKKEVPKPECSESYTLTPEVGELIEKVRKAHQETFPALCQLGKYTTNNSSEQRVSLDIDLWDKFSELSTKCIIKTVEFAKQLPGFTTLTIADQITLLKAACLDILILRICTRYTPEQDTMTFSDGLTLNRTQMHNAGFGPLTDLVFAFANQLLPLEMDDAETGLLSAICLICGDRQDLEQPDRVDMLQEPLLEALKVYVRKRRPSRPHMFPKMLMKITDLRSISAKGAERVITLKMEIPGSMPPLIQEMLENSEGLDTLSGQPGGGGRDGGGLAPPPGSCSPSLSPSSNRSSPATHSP
Method: Hybrid 3 was prepared by treatment of the methyl ester of TTNN with excess hydroxylamine under alkaline conditions. The effects of hybrid 3 on RAR were initially assessed using a bioluminescence resonance energy transfer (BRET) assay. The BRET assay monitors agonist-dependent recruitment of coactivators to RARs in transfected HEK293 cells, chosen because of their high degree of transfectability. Energy transfer between luciferase (fused to RARα) and eGFP (fused to the LXXLL coactivator motif) occurs only when these moieties are juxtaposed by the RAR-LXXLL interaction, and can be detected by the emission of green fluorescence.
Cell transfection and BRET assays: HEK293 cells were grown to confluence, trypsinized and plated at a density of 500 k cells per well (12-well plates) in DMEM supplemented with 10% charcoal treated FBS (FBS-T). The following day, cells were transfected with PEI using 0.1 μg of RAR-RLuc vector and 1 μg of LXXLL-eGFP vector. 48 hours post-transfection, cells were treated with retinoids for 2 hours before taking BRET measurements as described previously.

CAKI-1 = test: cells; details: Homo sapiens, CAKI-1, 48 h
SK-OV-3 = test: cells; details: Homo sapiens, SK-OV-3, 48 h
OVCAR-5 = details: 48 h
BT-20 = test: Cell growth measurement; type: cell-based; details: BT-20 (ER-negative, HER2-negative, RA-insensitive)
MDA-MB-468 = test: cells; details: Homo sapiens, MDA-MB-468, 48 h
M14 = test: cells; details: Homo sapiens, M14, 48 h
MCF7 = test: cells; details: Homo sapiens, MCF7, 48 h
HCT-15 = HCT-15 (Colon); 48 h
HOP-62 = HOP-62 (Non-Small cell lung cancer); 48 h
UO-31 = UO-31 (Renal); 48 h
T-47D = test: cells; details: Homo sapiens, T47D, 48 h

Structure (SMILES): CC1(C)CCC(C)(C)c2cc(-c3ccc4cc(C(=O)NO)ccc4c3)ccc21 [hybrid 3]
- GI50 (SN12C): 1050 nM
- CC50 (SN12C; read-out: LC50): 5340 nM
- TGI (SK-MEL-5): 2310 nM
- TGI (A498 [1]): 3800 nM
- TGI (SNB-75): 6100 nM
- TGI (HT29): 2340 nM
- GI50 (A498 [2]): 1660 nM
- CC50 (A498 [2]; read-out: LC50): 8710 nM
- TGI (HCC-2998): 2510 nM
- TGI (SF-268): 1850 nM
- GI50 (CCRF-CEM): 306 nM
- CC50 (CCRF-CEM; read-out: LC50): > 100000 nM
- TGI (U251): 1690 nM
- TGI (NCI-H322M): 3500 nM
- GI50 (MDA-MB-231/ATCC): 1200 nM
- CC50 (MDA-MB-231/ATCC; read-out: LC50): 12000 nM
- TGI (PC-3): 4250 nM
- GI50 (MOLT-4): 371 nM
- CC50 (MOLT-4; read-out: LC50): 7800 nM
- GI50 (MDA-MB-435): 879 nM
- CC50 (MDA-MB-435; read-out: LC50): 6800 nM
- RARα agonism (BRET signal) (RARα; 1 μM, 2 hours treatment): agonists of RARα
- EC50 (RARα; FIG. 2b, read-out: IC50 in inducing RARα (BRET dose-response)): 1020 nM
- GI50 (CAKI-1): 302 nM
- CC50 (CAKI-1; read-out: LC50): 4310 nM
- GI50 (SK-OV-3): 1540 nM
- CC50 (SK-OV-3; read-out: LC50): 34800 nM
- TGI (OVCAR-5): 19500 nM
- effect on cell growth (BT-20): active
- GI50 (MDA-MB-468): 1180 nM
- CC50 (MDA-MB-468; read-out: LC50): 6390 nM
- GI50 (M14): 708 nM
- CC50 (M14; read-out: LC50): 7430 nM
- GI50 (MCF7): 470 nM
- CC50 (MCF7; read-out: LC50): 4660 nM
- TGI (HCT-15): 2030 nM
- TGI (HOP-62): 2190 nM
- TGI (UO-31): 1610 nM
- GI50 (T-47D): 1270 nM
- CC50 (T-47D; read-out: LC50): 28000 nM
